Key:
[1] = molecular target: T1, BTK (Homo sapiens, UniProt Q06187); assay: BTK IC50 (EZ reader kinase assay); assay type: biochemical; set-up: purchased Carna; conditions: ATP 1 mM, BTK 2 nM, 90 minutes at room temperature
Description: Solutions of compounds (test or control) in DMSO were prepared at the desired concentrations, and serially diluted to 11 concentrations by 3-fold dilution in 384pp-plate using TECAN EVO200. 20 nL of stock were transferred to 384 plate using Echo550. DMSO was used as vehicle control.
Two separate solutions were prepared—an ATP solution containing MgCl2 (10 mM), Brij-35 (0.01%), DTT (2 mM), BSA (0.05%), EGTA (1 mM), HEPE (pH7.5) (50 mM), FLPeptide (6 uM) and ATP (4 mM); and a BTK solution containing MgCl2 (10 mM), Brij-35 (0.01%), DTT (2 mM), BSA (0.05%), EGTA (1 mM), HEPE (pH7.5) (50 mM) and BTK (2.67 nM). (BTK was obtained from Carna; FLPeptide2 was obtained from PerkinElmer and Ibrutinib was obtained from Selleck.) 5 uL of ATP solution were added to each well, followed by addition of 15 uL of BTK solution to initiate the reaction. (Note the final volume of each well was 20 uL containing MgCl2 (10 mM), Brij-35 (0.01%), DTT (2 mM), BSA (0.05%), EGTA (1 mM), HEPE (pH7.5) (50 mM), FLPeptide (1.5 uM), ATP (1 mM) and BTK (2 nM). The plates were incubated at room temperature for 90 minutes and then stopping buffer added (75 uL, containing 0.5 M EDTA) to terminate the reaction. Samples from each well were analyzed using EZ reader.
The % remaining activity was calculated using read conversion ratio (CR) according to the equation: […]
XLFit (equation 201) was used to calculate IC50's by floating both bottom and top.
BTK IC50 values are provided in Table 5, for the compounds described in Examples 1-13, wherein: • “A” denotes an IC50<1 nM; • “B” denotes an IC50 1-10 nM; and • “C” denotes an IC50>10 nM.

[2] = molecular target: T1, BTK; assay: Assay to determine BTK inactivation rate (active site probe ELISA, human whole blood); assay type: cell-based; set-up: tissue StemExpress; host or cells: human whole blood; conditions: 37° C., 5-60 minutes, read-out: BTK hWB (Kinact/Ki)
Description: This example employed a BTK active site probe-based assay using a biotinylated covalent inhibitor in human and mouse blood or mouse brain lysate.
Human whole blood was obtained from StemExpress (Stockton, CA) and kept at ambient temperature until the time of the experiment, which was approximately 24 hours after it had been collected. • 1. A 1× lysis buffer was prepared by using 10× lysis buffer (Cell Signaling Technology, #9083S, Danvers, MA), molecular biology grade water, 100× Halt Protease and Phosphatase Inhibitor Cocktail, (ThermoFisher, #78440, Waltham, MA), and BTK active site probe (final: 0.4 μM). This was prepared fresh each experimental day. • 2. Lysis buffer was added in the volume of 30 μL to all wells in a V-bottom plate (Greiner Bio-One, #651261, Monroe, NC) in preparation for timepoint collections. • 3. Compounds were reconstituted to stocks of 10 mM in 100% DMSO and were diluted in 2-fold serial dilutions to generate an 8-point curve in DMSO, with the last point being DMSO only. • 4. A working 10× dilution series was created using 1 μL of the prepared DMSO titration into […] 1×PBS in order to keep the DMSO constant (0.03% DMSO final). • 5. The whole blood was added in the volume of 225 μL per well in a new 96 w v-bottom plate. • 6. For compound treatment, 25 μL of the 10× dilution series in PBS was added to the 225 μL whole blood, followed by briefly pipetting up and down, twice. • 7. The plates were then covered with plastic lids and incubated at 37° C. for 5, 10, 15, 30, 60 minutes. • 8. At each timepoint, 30 μL of compound- or DMSO (vehicle)-treated blood is pulled from each column and added to preloaded collection plates that contained 30 μL of lysis buffer supplemented with BTK active site probe. Samples were then mixed briefly by pipetting up and down, twice. • 9. The plates with collected and lysed samples were shaken and covered with sealing film on a rotator for 60 minutes at room temperature. These samples were used fresh for detection via ELISA, and remaining sample was frozen at −80° C. if a repeat was necessary. Determining Amount of Unoccupied BTK Using ELISA • 1. All streptavidin pre-coated plates (R&D Systems, #CP004, Minneapolis, MN) were brought to room temperature while samples are lysing. • 2. Assay Buffer 1, 1×PBS+0.05% Tween 20+1% BSA was prepared, filtered, and stored at 4° C. when not in use. • 3. Using this Assay Buffer 1, assay buffer+1× protease/phosphatase inhibitor cocktail (PICS) was prepared in the amount needed for all samples. • 4. Assay Buffer+PICS in the volume of 90 μL/well was added to the ELISA plate for blood samples. • 5. Assay Buffer+PICs in the volume of 50 μL/well was added to the ELISA plate for brain samples. • 6. Lysed blood sample (10 μL) was added to the ELISA plate. • 7. Lysed brain sample (50 μL) was added to the ELISA plate. • 8. Samples were loaded into the ELISA plate for a total of 100 μL/well, in duplicate, and remained in the plate, sealed, overnight at 4° C. • 9. The following day, the plate was washed three times with 1× Wash Buffer (1×PBS+0.05% Tween 20) at 250 μL/well using a plate washer. • 10. The plate was inverted to expel all fluid each time and blotted on clean paper towels to remove remaining liquid. • 11. Assay Buffer 2 was prepared (1×PBS+0.05% Tween 20+0.5% BSA) and kept at 4° C. when not in use. • 12. The primary antibody α-BTK (clone D3H5, Cell Signaling Technology #8547S Danvers, MA) was diluted 1:500 in Assay Buffer 2. • 13. Diluted a-BTK antibody was added at 100 μL/well. • 14. The plate was covered with adhesive film and incubated for 90 minutes at room temperature. • 15. The plate was washed three times with 1× Wash Buffer at 250 μL/well using a plate washer. • 16. The plate was inverted to expel all fluid each time and blotted on clean paper towels to remove remaining liquid. • 17. The detection antibody (Jackson Immuno Research, #711-005-152) was diluted 1:2,500 with Assay Buffer 2. • 18. The diluted antibody was added at 100 μL/well. • 19. […]

T1 sequence (Q06187 whole entry): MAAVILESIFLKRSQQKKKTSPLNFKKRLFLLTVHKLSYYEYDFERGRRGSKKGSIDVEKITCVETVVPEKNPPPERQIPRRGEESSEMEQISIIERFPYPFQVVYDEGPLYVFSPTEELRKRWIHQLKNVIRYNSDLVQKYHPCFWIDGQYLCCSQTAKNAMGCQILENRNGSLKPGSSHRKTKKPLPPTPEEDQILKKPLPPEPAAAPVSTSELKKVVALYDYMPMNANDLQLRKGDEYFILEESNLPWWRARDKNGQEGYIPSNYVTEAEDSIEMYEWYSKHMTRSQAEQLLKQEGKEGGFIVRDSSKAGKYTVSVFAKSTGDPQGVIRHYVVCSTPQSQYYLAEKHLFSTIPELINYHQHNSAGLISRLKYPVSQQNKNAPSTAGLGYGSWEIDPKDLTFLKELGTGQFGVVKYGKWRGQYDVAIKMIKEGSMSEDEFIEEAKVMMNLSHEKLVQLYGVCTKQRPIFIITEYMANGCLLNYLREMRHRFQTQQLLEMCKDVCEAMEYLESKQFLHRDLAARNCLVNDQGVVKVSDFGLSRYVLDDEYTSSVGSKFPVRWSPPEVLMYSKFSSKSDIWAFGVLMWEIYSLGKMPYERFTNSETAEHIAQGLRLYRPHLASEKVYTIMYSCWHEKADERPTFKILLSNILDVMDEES

| Structure (SMILES) | IC50 [1] [nM] | kinact/KI [2] [M⁻¹ s⁻¹] |
| --- | --- | --- |
| CC#CC(=O)N[C@@H]1CCC=C(c2c(F)cc(C(N)=O)c3[nH]c(C)c(Cl)c23)C1 [1A(R), (R)-4-(5-(but-2-ynamido)cyclohex-1-en-1-yl)-3-chloro-5-fluoro-2-methyl-1H-indole-7-carboxamide] | 1 to 10 | < 8330 |
| CC#CC(=O)N[C@H]1CCC=C(c2c(F)cc(C(N)=O)c3[nH]c(C)c(Cl)c23)C1 [1A(S), (S)-4-(5-(but-2-ynamido)cyclohex-1-en-1-yl)-3-chloro-5-fluoro-2-methyl-1H-indole-7-carboxamide] | < 1 | < 8330 |
| CC#CC(=O)N[C@@H]1CCC=C(c2c(F)c(F)c(C(N)=O)c3[nH]c(C)c(Cl)c23)C1 [2A(R), (R)-4-(5-(but-2-ynamido)cyclohex-1-en-1-yl)-3-chloro-5,6-difluoro-2-methyl-1H-indole-7-carboxamide] | 1 to 10 | < 8330 |
| CC#CC(=O)N[C@H]1CCC=C(c2c(F)c(F)c(C(N)=O)c3[nH]c(C)c(Cl)c23)C1 [2A(S), (S)-4-(5-(but-2-ynamido)cyclohex-1-en-1-yl)-3-chloro-5,6-difluoro-2-methyl-1H-indole-7-carboxamide] | < 1 | > 16700 |
| CC#CC(=O)N[C@H]1CCC=C(c2c(F)cc(C(N)=O)c3[nH]c(C)c(C)c23)C1 [3A(S), (S)-4-(5-(but-2-ynamido)cyclohex-1-en-1-yl)-5-fluoro-2,3-dimethyl-1H-indole-7-carboxamide] | < 1 | > 16700 |
| CC#CC(=O)N[C@@H]1C=C(c2c(F)cc(C(N)=O)c3[nH]c(C)c(C)c23)CCC1 [3B(S), (S)-4-(3-(but-2-ynamido)cyclohex-1-en-1-yl)-5-fluoro-2,3-dimethyl-1H-indole-7-carboxamide] | 1 to 10 | > 16700 |
| CC#CC(=O)N[C@@H]1C=C(c2c(F)cc(C(N)=O)c3[nH]c(C)c(Cl)c23)CCC1 [5B(S), (S)-4-(3-(but-2-ynamido)cyclohex-1-en-1-yl)-3-chloro-5-fluoro-2-methyl-1H-indole-7-carboxamide] | 1 to 10 | < 8330 |
| CC#CC(=O)N[C@H]1CCC[C@@H](c2c(F)cc(C(N)=O)c3[nH]c(C)c(Cl)c23)C1 [6-(1R,3S), 4-((1R,3S)-3-(but-2-ynamido)cyclohexyl)-3-chloro-5-fluoro-2-methyl-1H-indole-7-carboxamide] | 1 to 10 | < 8330 |
| CC#CC(=O)N[C@H]1CCC[C@H](c2c(F)cc(C(N)=O)c3[nH]c(C)c(Cl)c23)C1 [6-(1S,3S), 4-((1S,3S)-3-(but-2-ynamido)cyclohexyl)-3-chloro-5-fluoro-2-methyl-1H-indole-7-carboxamide] | 1 to 10 | 8330 to 16700 |
| CC#CC(=O)N[C@H]1CCC[C@H](c2c(F)cc(C(N)=O)c3[nH]c(C)c(C)c23)C1 [10-(1S,3S), 4-((1S,3S)-3-(but-2-ynamido)cyclohexyl)-5-fluoro-2,3-dimethyl-1H-indole-7-carboxamide] | 1 to 10 | < 8330 |
| CC#CC(=O)N[C@@H]1CCC[C@@H](c2c(F)c(F)c(C(N)=O)c3[nH]c(C)c(Cl)c23)C1 [11-(1R,3R), 4-[(1R,3R)-3-(but-2-ynoylamino)cyclohexyl]-3-chloro-5,6-difluoro-2-methyl-1H-indole-7-carboxamide] | 1 to 10 | < 8330 |
| CC#CC(=O)N[C@H]1CC[C@@H](c2c(F)cc(C(N)=O)c3[nH]c(C)c(C)c23)C1 [12-(1R,3S), 4-((1R,3S)-3-(but-2-ynamido)cyclopentyl)-5-fluoro-2,3-dimethyl-1H-indole-7-carboxamide] | 1 to 10 | < 8330 |
| CC#CC(=O)N[C@@H]1CCC[C@@H](c2c(F)c(F)c(C(N)=O)c3[nH]c(C)c(C#N)c23)C1 [Compound 7-(1R,3R), 4-((1R,3R)-3-(but-2-ynamido)cyclohexyl)-3-cyano-5,6-difluoro-2-methyl-1H-indole-7-carboxamide] | 1 to 10 | 8330 to 16700 |
| CC#CC(=O)N[C@H]1CCC[C@@H](c2c(F)c(F)c(C(N)=O)c3[nH]c(C)c(C#N)c23)C1 [Compound 7-(1R,3S), 4-((1R,3S)-3-(but-2-ynamido)cyclohexyl)-3-cyano-5,6-difluoro-2-methyl-1H-indole-7-carboxamide] | 1 to 10 | < 8330 |
| CC#CC(=O)N[C@H]1CCC[C@@H](c2c(F)c(F)c(C(N)=O)c3[nH]c(C)c(Cl)c23)C1 [Compound 11-(1R,3S), 4-((1R,3S)-3-(but-2-ynamido)cyclohexyl)-3-chloro-5,6-difluoro-2-methyl-1H-indole-7-carboxamide] | 1 to 10 | < 8330 |
| CC#CC(=O)N[C@@H]1CC[C@@H](c2c(F)cc(C(N)=O)c3[nH]c(C)c(C)c23)C1 [Compound 13-(1R,3R), 4-((1R,3R)-3-(but-2-ynamido)cyclopentyl)-5-fluoro-2,3-dimethyl-1H-indole-7-carboxamide] | 1 to 10 | < 8330 |

Source: patent publication US12600698B2, “Kinase inhibitors” (Vidya Therapeutics, Inc., priority 2021, dated 2026)
